Measured values: publication PMC5672024, “Selective Glucocorticoid Receptor Properties of GSK866 Analogs with Cysteine Reactive Warheads” (Frontiers in Immunology, 2017)

Experiments:
[1] = system: GR nuclear translocation in A549 cells; assay: Immunofluorescence of nuclear GR translocation in A549 cells; type: cell-based, human; settings: serum starved A549 cells, 1 µM, 30 min
Method: To detect endogenous GR in A549 cells, cells were grown in serum free media for 24 h followed by treatment with 1 µM of specific GR ligands. After 30 min of treatment, cells on the cover glass were fixed in 4% formaldehyde in phosphate-buffered saline (PBS), permeabilized with 0.3% Triton X-100–PBS, and then blocked in 5% milk, 10% FCS, 0.3% bovine serum albumin, and 0.3% Triton X-100 in PBS for 30 min at room temperature. Primary antibodies against anti GR-antibody (SantaCruz Biotechnology) were used at a dilution of 1:200. Nuclei were stained by DAPI and samples were analyzed using a confocal Leica LSM410 microscope. To quantify nuclear translocation of GR in a standardized manner, multichannel fluorescence images were analyzed using a script for FIJI image analysis freeware (http://fiji.sc) that is essentially based on a pipeline described before (CellBlocks.ijm) ([39]), and is available upon request. In brief, the analysis first segments nuclei in the Hoechst/DAPI channel and then uses the nuclear mask to define perinuclear cytoplasmic regions of interest (ROIs). Nuclei are detected after local contrast enhancement and Gaussian smoothing to, respectively, cover for spatial illumination heterogeneity and noise. After automatic thresholding (Isodata algorithm), touching nuclei are separated using a conditional watershed algorithm ([40]). Next, cytoplasmic ROIs are determined as concentric bands around the nuclei by Voronoi-restrained region growing ([41]). Finally, the average intensity of the GR channel is measured in both the nuclear and cytoplasmic ROIs and the nuclear-to cytoplasm signal intensity ratio (N/C Ratio) is calculated per cell (Figure S1 in Supplementary Material) ([42]).
Figure 6 Selective glucocorticoid receptor agonist GSK866 analogs UAMC-1217, UAMC-1218, but not UAMC-1158 and UAMC-1159 trigger nuclear glucocorticoid receptor (GR) translocation. (A) Serum starved A549 cells were left solvent treated or treated for 30 min with 1 µM Dex, Dex-mesylate (Dex-Mes), GSK866, UAMC-1158, UAMC-1159, UAMC-1217, or UAMC-1218. GR translocation was evaluated by immunofluorescence whereas nuclei were stained by DAPI dye. Magnification is at 100×. White scalebars represent […]. (B) Automated image quantification of GR translocation of three replicate immunofluorescence images of the different experimental setups.

GILZ/TSC22D3 mRNA = assay: qPCR of GR target gene GILZ/TSC22D3 in HaCat cells; type: cell-based; settings: 6 h, 10, 100 or 1,000 nM, compared with Dex
Method: qPCR was performed using the GoTaq qPCR Master Mix (Promega) according to manufacturer’s instructions. In short, a 25 µl reaction volume mix per sample was prepared containing 12.5 µl GoTaq qPCR Master Mix, 0.4 µM forward and reverse primer, and nuclease-free water. We used the Rotor-Gene Q qPCR machine of Qiagen with following PCR program: 95°C for 2 min, 40 cycli denaturation (95°C, 15 s) and annealing/extension (60°C, 30 s), and dissociation (60–95°C). […] Each sample was run in triplicate. The median value of the triplicates were taken to calculate the deltaCt-values using GAPDH as the normalization gene.
(A) QPCR assays was performed against the GR target gene GILZ/TSC22D3 in HaCat cells treated for 6 h with different concentrations 10, 100 or 1,000 nM Dex or UAMC-1217. Bar graph plot represents the relative mRNA levels of GILZ/TSC22D3 upon Dex or UAMC-1217 treatment. (B) QPCR assays was performed against the TNF-inducible inflammatory gene interleukin-6 (IL6) in HaCat cells treated for 6 h with different concentrations 10, 100, or 1,000 nM Dex or UAMC-1217 either or not, cotreated for the last 4 h with TNF (2,500 IU/ml) as indicated in panel (B). […] Significant mean differences versus control setups panel (A) or TNF treated setup panel (B) are marked as *** (P < 0.001), **(P < 0.01), * (P < 0.05) and were determined by one-way ANOVA (Dunnetts Posttest).

[2] = system: GR transactivation, p(GRE)2-50-luc reporter in HaCat cells; assay: p(GRE)2-50-luc reporter gene assay (GR transactivation); type: cell-based; settings: 6 h, 10 nM
Method: In order to compare transactivation and transrepression potencies of the different synthesized GSK866 analogs, we performed GRE- and NFκB-luciferase-dependent reporter gene studies in stable transfected cell lines, as previously described ([3], [8]). HaCat cells expressing p(GRE)2 50-Luc and L929sA cells expressing p(GRE)250-Luc or p(NFκB)350-Luc were cultured in DMEM medium with 1% L-glutamine, supplemented with 10% feral bovine serum (FBS), 100 µg/ml streptomycin, and 100 IU/mL penicillin in a humidified 5% CO2 atmosphere. Cells were passaged every 2 days at a dilution of 1:6. Reporter gene cells were plated at a density of 0.5 × 10^5 cells/well in 24 well plates and grown overnight. p(GRE)250-Luc-dependent reporter gene cells were treated with solvent (DMSO) or compound (100 fM, 1 nM, 10 nM, 100 nM, and 1 µM) for 6 h, whereas in case of p(NFκB)350-Luc, TNF (2,500 IU/mL) was added 2 h following compound treatment. After incubation with the compounds, medium was removed and cells were washed twice with PBS followed by adding 100 µl of 1× lysis buffer (0.2 M K2HPO4, 0.2 M KH2PO4, Triton X-100, pH 7.6). 25 µl of lysate was assayed for luciferase activity by adding 50 µl of luciferase assay substrate (1 mM luciferin or luciferin salt, 3 mM ATP, and 15 mM MgSO4 in 30 mM HEPES buffer, pH 7.8) followed by 10 s mixing and measuring 1 s bioluminescence using an Envision multilabel reader (Perkin Elmer).
Figure 3 Selective glucocorticoid receptor agonist GSK866 analogs UAMC-1217, UAMC-1218 but not UAMC-1158 and UAMC-1159 elicit selective glucocorticoid receptor-transactivation and NFκB-transrepression properties. Glucocorticoid response element (GRE)- and NFκB-luciferase-dependent reporter gene assays were performed in L929sA and HaCat reporter cells which were stably transfected with, respectively, p(NFκB)3-50luc or p(GRE)2-50-luc constructs. For p(GRE)2-50-luc reporter assays, cells were solvent-treated or induced with different concentrations of Dex (A), Dex-mesylate (Dex-Mes) (A), SEGRA GSK866 (C) or analogs UAMC-1158 (D), UAMC-1159 (E), UAMC-1217 (F), and UAMC-1218 (G) as indicated for a total exposure time of 6 h, whereas cells were cotreated for TNF (2,500 IU/ml) in the last 4 h for p(NFkB)3-50luc reporter assays (B–G). Corresponding lysates were assayed for luciferase activities and normalized for protein content as described in the Section “Materials and Methods.” Promoter activities are expressed as relative induction factor (± standard deviation) i.e., the ratio of expression levels recorded either at induced and non-induced conditions, with the latter taken to be 1.

Row | Compound | nuclear GR translocation [1] | GILZ/TSC22D3 gene expression (GILZ/TSC22D3 mRNA) | GR transactivation in GRE-luc reporter at 10 nM [2]
1 | C[C@@H]1C[C@H]2[C@@H]3CCC4=CC(=O)C=C[C@]4(C)[C@@]3(F)[C@@H](O)C[C@]2(C)[C@@]1(O)C(=O)CO [Dex, Dexamethasone, reference compound] | induce (partial) translocation of GR from the cytosol to the nucleus |  | 
2 | CCN(C[C@@](O)(CNC(=O)c1cnn(-c2ccc(F)cc2)c1N)C(F)(F)F)C(=O)c1c(Cl)ccc(NC(=O)CCl)c1Cl [UAMC-1217] | induce (partial) translocation of GR from the cytosol to the nucleus | reduced transactivation effects | significantly reduced GR transactivation to levels below transactivation observed with 10 nM of Dex
